In patent US10995070B2, “Acetyl-CoA carboxylase modulators” (Monsanto Technology LLC, priority 2013, dated 2021):

Assays:
[1] = tested on: Collectotrichum graminicola; assay: Fungal growth inhibition assay, C. graminicola; type: cell-based; conditions: Colletotrichum graminicola, 48 h
Procedure: (§1) Spores were isolated from previously sub-cultured plates of Botrytis cinerea, Phytophthora capsici, Fusarium moniliforme, Fusarium viguliforme, Collectotrichum graminicola, and Diplodia maydis. All spores were filtered and collected in a sterile glass bowl to isolate the spores from the mycelia. The isolation and sub-culture plate condition for each pathogen is described below.
Spore isolation for C. graminicola: A 1-2 week old oatmeal agar (pre-mix) plate was removed from 26° C. incubator with a light/dark 12 hour cycle and the mycelia were treated with 10-15 ml of filter sterilized distilled water. The mycelia were scraped to re-suspend the spores. The spores were then collected in a sterile filter bowl containing a piece of sterile cheesecloth and poured into a conical tube.
(§2) After spore isolation, pathogen spores were counted on a hemocytometer to calculate the spores/ml. In 17% V8 liquid media containing 3 g/L CaCO3, isolated spores were diluted to individual concentrations based on the growth curves at 48 hours of each pathogen. The spore concentrations for each pathogen were as follows: B. cinerea—10,000 sp/ml; P. capsici—300 sp/ml; F. monliforme—500 sp/ml; F. virguliforme—500 sp/ml; C. graminicola—3,000 sp/ml; and D. maydis—3,000 sp/ml.
(§3) Chemistry stocks were dissolved in DMSO at 2.5 mg/ml. Chemistry was diluted in a 96-well stock plate in five-fold dilutions to obtain a final concentration of 50, 10, and 2 ppm in vitro. The final concentration of the positive control after the five-fold dilutions was as follows: soraphen—0.5, 0.1, and 0.02 ppm. Negative controls on each plate included 2% DMSO, water containing spores and media, and a blank for background subtraction.
(§4) In a 96-well plate the spore solution, chemistries, and controls were combined to make the final solution concentrations mentioned above. Upon addition of the chemistry, an OD600 reading was done to assess chemical precipitation. The 96-well plates were incubated in plastic tubs containing wet paper towels under the following conditions, 25° C. in the dark for P. capsici and B. cinerea or 26° C. with light/dark cycle for C. graminicola, D. maydis, F. virguliforme, F. monliforme. Plate readings were repeated at 24 and 48 hrs. Visual ratings were performed at 24 and 48 hrs to check for precipitation and confirm efficacy. Visual and OD600 ratings of the chemistry at 48 hours were compared to the 2% DMSO control to determine the percent of pathogen growth inhibition.

[2] = molecular target: Ustilago maydis acetyl CoA carboxylase (ACCase) (Ustilago maydis, UniProt A0A0D1DYD5); assay: ACCase enzymatic assay (coupled PK/LDH, NADH OD340); type: biochemical; conditions: read-out: ACCase Inhibitory Activity IC50
Chain of Ustilago maydis acetyl CoA carboxylase (ACCase) (A0A0D1DYD5 1-2185): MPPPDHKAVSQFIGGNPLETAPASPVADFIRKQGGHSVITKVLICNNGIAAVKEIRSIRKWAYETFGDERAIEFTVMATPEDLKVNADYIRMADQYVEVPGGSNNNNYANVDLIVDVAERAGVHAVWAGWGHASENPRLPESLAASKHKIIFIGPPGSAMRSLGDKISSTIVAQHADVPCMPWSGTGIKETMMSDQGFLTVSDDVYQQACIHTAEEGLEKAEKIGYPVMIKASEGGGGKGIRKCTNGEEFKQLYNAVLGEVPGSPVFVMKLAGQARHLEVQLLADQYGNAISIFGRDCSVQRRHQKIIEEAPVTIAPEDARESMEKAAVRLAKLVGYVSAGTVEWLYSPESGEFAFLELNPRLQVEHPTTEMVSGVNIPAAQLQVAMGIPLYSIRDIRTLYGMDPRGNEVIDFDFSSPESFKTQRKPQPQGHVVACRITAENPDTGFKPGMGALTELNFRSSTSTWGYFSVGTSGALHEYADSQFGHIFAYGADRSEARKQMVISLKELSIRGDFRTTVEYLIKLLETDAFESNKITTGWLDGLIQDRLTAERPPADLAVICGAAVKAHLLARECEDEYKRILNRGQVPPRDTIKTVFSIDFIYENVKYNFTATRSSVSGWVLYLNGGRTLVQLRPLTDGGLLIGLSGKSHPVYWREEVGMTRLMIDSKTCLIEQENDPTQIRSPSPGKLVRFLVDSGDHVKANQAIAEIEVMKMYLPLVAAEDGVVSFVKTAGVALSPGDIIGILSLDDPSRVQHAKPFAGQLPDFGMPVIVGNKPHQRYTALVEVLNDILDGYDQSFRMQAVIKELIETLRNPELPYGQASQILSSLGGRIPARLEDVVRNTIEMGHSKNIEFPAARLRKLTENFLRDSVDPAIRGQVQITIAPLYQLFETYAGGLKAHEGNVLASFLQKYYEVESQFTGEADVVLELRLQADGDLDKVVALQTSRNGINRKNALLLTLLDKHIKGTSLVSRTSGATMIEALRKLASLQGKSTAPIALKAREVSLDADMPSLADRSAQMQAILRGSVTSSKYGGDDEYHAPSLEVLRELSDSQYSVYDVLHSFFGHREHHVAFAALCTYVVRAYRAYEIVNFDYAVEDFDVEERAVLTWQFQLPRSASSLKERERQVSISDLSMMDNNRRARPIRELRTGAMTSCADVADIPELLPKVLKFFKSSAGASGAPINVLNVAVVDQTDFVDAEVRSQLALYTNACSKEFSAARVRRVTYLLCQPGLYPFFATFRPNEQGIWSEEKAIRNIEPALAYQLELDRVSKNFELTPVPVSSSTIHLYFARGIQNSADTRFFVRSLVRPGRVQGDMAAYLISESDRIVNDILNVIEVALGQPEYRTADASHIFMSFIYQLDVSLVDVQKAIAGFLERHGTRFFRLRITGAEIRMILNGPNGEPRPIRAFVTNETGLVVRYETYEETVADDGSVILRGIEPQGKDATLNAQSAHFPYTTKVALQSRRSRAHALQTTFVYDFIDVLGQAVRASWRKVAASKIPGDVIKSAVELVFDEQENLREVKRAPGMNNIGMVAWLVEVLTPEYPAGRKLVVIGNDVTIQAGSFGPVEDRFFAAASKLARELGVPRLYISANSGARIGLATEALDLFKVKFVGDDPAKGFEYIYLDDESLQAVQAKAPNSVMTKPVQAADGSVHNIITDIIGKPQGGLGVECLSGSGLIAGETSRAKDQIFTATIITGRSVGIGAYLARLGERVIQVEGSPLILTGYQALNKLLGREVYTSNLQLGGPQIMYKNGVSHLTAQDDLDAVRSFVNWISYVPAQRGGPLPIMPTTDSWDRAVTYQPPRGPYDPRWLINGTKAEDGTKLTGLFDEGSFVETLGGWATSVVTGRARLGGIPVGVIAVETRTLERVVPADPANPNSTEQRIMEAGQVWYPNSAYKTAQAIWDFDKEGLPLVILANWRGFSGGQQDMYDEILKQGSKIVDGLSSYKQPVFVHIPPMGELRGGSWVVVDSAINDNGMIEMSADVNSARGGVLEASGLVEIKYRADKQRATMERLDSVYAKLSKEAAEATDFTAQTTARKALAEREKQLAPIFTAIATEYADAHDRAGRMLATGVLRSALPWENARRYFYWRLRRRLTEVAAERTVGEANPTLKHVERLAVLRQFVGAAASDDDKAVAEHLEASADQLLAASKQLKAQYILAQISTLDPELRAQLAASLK
Procedure: Ustilago maydis acetyl CoA carboxylase (ACCase) was cloned, expressed, and purified as described (Weatherly et al, Biochem. J., 2004) and the test compounds were tested in a 96-well plate format. Primary in vitro screening consisted of obtaining dose response data at 100, 33, 10, and 1 μM inhibitor. Actives in the primary screen were re-tested to establish IC50 values.
Direct detection of the conversion of acetyl CoA to malonyl CoA by ACCase was not feasible, but during this process ATP is converted to ADP which allowed for detection through a standard reaction coupling with ADP recycling to the oxidation of NADH. Thus, ACCase activity was measured via kinetic OD340 measurements of the conversion of NADH to NAD in a coupled reaction involving the conversion of phosphoenolpyruvate (PEP) to lactate.
The complete 200 ul reaction mixture contained 52.5 mM HEPES (pH8), 2.625 mM MgCl2, 1 mM ATP, 0.525 mM DTT, 11 mM NaHCO3, 1% DMSO with or without inhibitor, 1× pyruvate kinase/lactate dehydrogenase (PK/LDH), 0.3 mM NADH, 0.5 mM PEP, and 5 μg ACCase. The reactions were incubated at 30° C. for 10 minutes and then initiated by the addition of 0.33 mM acetyl CoA. The initiated reactions were read immediately via plate reader at OD340 and kinetic readings were acquired every 20 s for 15 minutes while keeping the temperature at 30° C.
A slope of the kinetic curve was determined by using the 2 to 7 minute data which was then calculated as percent inhibition relative to the no inhibitor control.
The primary screens were conducted in duplicate and the IC50's conducted in triplicate. Averages were reported along with standard deviation calculation to generate error bars.
Each plate contained its own controls and consisted of a DMSO only control, 5-fold titration series of soraphen from 2 μM to 3.2 nM, and an ADP coupled reaction control. […]
A slope of the kinetic curve was determined by using the 2 to 7 minute data which was then calculated as percent inhibition relative to the no inhibitor control. Those compounds which had no significant PK/LDH inhibition at or above the IC50 in the ACCase assay, were considered to be valid modulators of only ACCase.

Diplodia maydis = assay: Fungal growth inhibition assay, D. maydis; type: cell-based; conditions: 48 h
Procedure: as §1
Spore isolation for D. maydis: A 3-4 week old PDA (pre-mix) plate was removed from 26° C. incubator with a light/dark 12 hour cycle and the mycelia were treated with 6-7 ml of sterile distilled water, scraped into a sterile petri dish, and smashed to open the pycnidia. The spores were then collected in a sterile filter bowl containing a fluted piece of filter paper and poured into a conical tube.
as §2, §3, §4

Saccharomyces cerevisiae = assay: Yeast growth inhibition assay; type: cell-based; conditions: read-out: S. cerevisiae % growth inhibition
Procedure: Yeast cells (Ade2 strain) were grown in liquid YPD (1% yeast extract, 2% peptone, 2% dextrose) for 16 hours at 30° C. from previously sub-cultured plates of Saccharomyces cerevisiae. The OD600 of the overnight culture was checked via spectrophotometer and diluted to a concentration of 2×10^4 cells/ml.
Chemistry stocks were dissolved in DMSO to a concentration of 10 mM. Chemistry stocks were further diluted in a 96-well stock plate to obtain final concentrations of […] in 1% DMSO. The final concentrations of the soraphen positive control were 400, 40, and 3.2 nM. The negative controls on each plate included a background subtraction control containing yeast and 1% DMSO (without chemistry) and a second contamination control containing YPD (with no yeast) and 1% DMSO (without chemistry).
98 μl liquid YPD was added to 2 μl diluted stock of DMSO per well and mixed thoroughly. After mixing, 100 μl of the diluted yeast solution was added to bring the final yeast concentration to 1×10^4 cells/ml or 2000 cells per well. An initial spectrophotometric reading at OD600 was conducted on the entire plate and served as the 0 hours time point used to subtract any background. […] […] […] All experiments were conducted in triplicate. Averages were reported along with standard deviation calculation to generate error bars. Each plate contained its own controls and consisted of inoculated+DMSO, non-inoculated+DMSO, and a titration series of soraphen at 400, 40, and 3.2 nM.

Fusarium virguliforme = assay: Fungal growth inhibition assay, F. virguliforme; type: cell-based; conditions: 48 h
Procedure: as §1
Spore isolation for F. virguliforme: A 2-3 week old PDA (pre-mix) plate containing cefotaxime (100 mg/L) and kanamycin (50 mg/L) was removed from 26° C. incubator with a light/dark 12 hour cycle and the mycelia were treated with 5-10 ml of filter sterilized distilled water. The mycelia were scraped to re-suspend the spores. The spores were then collected in a sterile filter bowl containing a fluted piece of filter paper and poured into a conical tube.
as §2, §3, §4

Question: Which inhibition at 2 ppm [1] does the source give for COc1ccc(-c2cc(-c3ccccc3)c3ccccc3n2)cc1OC [Formula IV-ii, 2-(3,4-dimethoxyphenyl)-4-phenylquinoline] here?
Answer: The inhibition at 2 ppm was 34%.

Question: And the inhibition at 10 ppm [1]?
Answer: The inhibition at 10 ppm was 41%.

Question: What about the IC50 [2] of the same compound?
Answer: The IC50 was 7.82 µM.

Question: And the inhibition at 2 ppm (Diplodia maydis)?
Answer: The inhibition at 2 ppm was 26%.

Question: And the inhibition at 10 ppm (Diplodia maydis)?
Answer: Its inhibition at 10 ppm is 34%.

Question: Which IC50 [2] does the source give for CCc1cccc2c(-c3ccccc3)cc(-c3ccc(CC(N)=O)s3)nc12 [Formula Ib-vi, 2-(5-(8-ethyl-4-phenylquinolin-2-yl)thiophen-2-yl)acetamide] here?
Answer: The IC50 was 9.58 µM.

Question: With NC(=O)Cc1ccc(-c2cc(-c3ccccc3)c3ccccc3n2)s1 [Formula Ib-iii, 2-(5-(4-phenylquinolin-2-yl)thiophen-2-yl)acetamide] as the compound, how does the inhibition at 2 ppm [1] read?
Answer: The inhibition at 2 ppm was 31%.

Question: What about the inhibition at 10 ppm [1] of the same compound?
Answer: The inhibition at 10 ppm was 98%.

Question: And the inhibition at 50 ppm [1]?
Answer: The inhibition at 50 ppm was 81%.

Question: What about the IC50 [2] of the same compound?
Answer: Its IC50 is 8.18 µM.

Question: And the inhibition at 3.7 µM (Saccharomyces cerevisiae; 3.7 μM)?
Answer: The inhibition at 3.7 µM was 0%.

Question: What about the inhibition at 11.1 µM (Saccharomyces cerevisiae; 11.1 μM) of the same compound?
Answer: The inhibition at 11.1 µM was 14%.

Question: And the inhibition at 33.3 µM (Saccharomyces cerevisiae; 33.3 μM)?
Answer: The inhibition at 33.3 µM was 57%.

Question: And the inhibition at 100 µM (Saccharomyces cerevisiae; 100 μM)?
Answer: The inhibition at 100 µM was 99%.

Question: For COc1cccc2c(-c3ccccc3)cc(-c3ccc(OCC(N)=O)cc3)nc12 [Formula Ia-iii, 2-(4-(8-methoxy-4-phenylquinolin-2-yl)phenoxy)acetamide], which IC50 [2] is on record?
Answer: The IC50 was 0.549 µM.

Question: For COc1ccc2c(-c3ccccc3)cc(SC(C)C(N)=O)nc2c1 (centres unmarked) [Formula III-i, 2-((7-methoxy-4-phenylquinolin-2-yl)thio)propanamide], which IC50 [2] is on record?
Answer: The IC50 was 8.8 µM.

Question: COC(=O)Cc1ccc(-c2cc(-c3ccccc3)c3ccccc3n2)s1 [Formula IId-i, methyl 2-(5-(4-phenylquinolin-2-yl)thiophen-2-yl)acetate] was tested. Which inhibition at 2 ppm [1] did it give?
Answer: Its inhibition at 2 ppm is 6%.

Question: And the inhibition at 10 ppm [1]?
Answer: The inhibition at 10 ppm was 32%.

Question: And the inhibition at 50 ppm [1]?
Answer: Its inhibition at 50 ppm is 79%.

Question: What about the IC50 [2] of the same compound?
Answer: Its IC50 is 12 µM.

Question: And the inhibition at 2 ppm (Diplodia maydis)?
Answer: Its inhibition at 2 ppm is 16%.

Question: And the inhibition at 10 ppm (Diplodia maydis)?
Answer: Its inhibition at 10 ppm is 26%.

Question: Which IC50 [2] does the source give for CCc1cccc2c(-c3ccccc3)cc(-c3ccc(OCC(N)=O)cc3)nc12 [Formula Ia-iv, 2-(4-(8-ethyl-4-phenylquinolin-2-yl)phenoxy)acetamide] here?
Answer: Its IC50 is 8.15 µM.

Question: For NC(=O)Cc1ccc(-c2nc3ccccc3c(-c3ccccc3)c2Cl)s1 [Formula Ib-i, 2-(5-(3-chloro-4-phenylquinolin-2-yl)thiophen-2-yl)acetamide], which inhibition at 2 ppm [1] is on record?
Answer: The inhibition at 2 ppm was 44%.

Question: And the inhibition at 10 ppm [1]?
Answer: Its inhibition at 10 ppm is 51%.

Question: And the IC50 [2]?
Answer: The IC50 was 1.32 µM.

Question: And the inhibition at 2 ppm (Fusarium virguliforme)?
Answer: The inhibition at 2 ppm was 43%.

Question: What about the inhibition at 10 ppm (Fusarium virguliforme) of the same compound?
Answer: The inhibition at 10 ppm was 31%.

Question: For O=C(O)COc1ccc(-c2cc(-c3ccccc3)c3ccccc3n2)cc1 [Formula Ia-ii, 2-(4-(4-phenylquinolin-2-yl)phenoxy)acetic acid], which IC50 [2] is on record?
Answer: The IC50 was 0.165 µM.

Question: With NC(=O)COc1ccc(-c2cc(-c3ccccc3)c3ccccc3n2)cc1 [Formula Ia-i, 2-(4-(4-phenylquinolin-2-yl)phenoxy)acetamide] as the compound, how does the IC50 [2] read?
Answer: Its IC50 is 0.515 µM.

Question: Which IC50 [2] does the source give for O=C(COc1ccc(-c2cc(-c3ccccc3)c3cc(Cl)ccc3n2)cc1)NCCO [Formula Ia-v, 2-(4-(6-chloro-4-phenylquinolin-2-yl)phenoxy)-N-(2-hydroxyethyl)acetamide] here?
Answer: Its IC50 is 13 µM.

Question: Which inhibition at 2 ppm [1] does the source give for COc1ccc(-c2cc(-c3ccccc3)c3ccccc3n2)cc1 [Formula IV-i, 2-(4-methoxyphenyl)-4-phenylquinoline] here?
Answer: The inhibition at 2 ppm was 35%.

Question: And the inhibition at 10 ppm [1]?
Answer: The inhibition at 10 ppm was 22%.

Question: What about the IC50 [2] of the same compound?
Answer: Its IC50 is 21.2 µM.

Question: And the inhibition at 2 ppm (Diplodia maydis)?
Answer: The inhibition at 2 ppm was 21%.

Question: What about the inhibition at 10 ppm (Diplodia maydis) of the same compound?
Answer: The inhibition at 10 ppm was 44%.

Question: Which inhibition at 2 ppm (Diplodia maydis) does the source give for COC(=O)COc1ccc(-c2cc(-c3ccccc3)c3ccccc3n2)cc1 [Formula IIc-i, methyl 2-(4-(4-phenylquinolin-2-yl)phenoxy)acetate] here?
Answer: Its inhibition at 2 ppm is 12%.

Question: What about the inhibition at 10 ppm (Diplodia maydis) of the same compound?
Answer: Its inhibition at 10 ppm is 44%.

Question: For CO[C@H]1CCCC[C@@H](c2ccccc2)OC(=O)[C@@H](C)[C@@]2(O)O[C@H]([C@@H](C)[C@H](O)[C@H]2OC)[C@@H](C)/C=C/[C@H]1OC [Soraphen, reference compound], which IC50 [2] is on record?
Answer: The IC50 was 0.0458 µM.

Question: For COC(=O)Cc1ccc(-c2nc3ccccc3c(-c3ccccc3)c2Cl)s1 [Formula IId-ii, methyl 2-(5-(3-chloro-4-phenylquinolin-2-yl)thiophen-2-yl)acetate], which inhibition at 2 ppm (Diplodia maydis) is on record?
Answer: Its inhibition at 2 ppm is 26%.

Question: What about the inhibition at 10 ppm (Diplodia maydis) of the same compound?
Answer: Its inhibition at 10 ppm is 30%.

Question: And the inhibition at 2 ppm (Fusarium virguliforme)?
Answer: Its inhibition at 2 ppm is 44%.

Question: And the inhibition at 10 ppm (Fusarium virguliforme)?
Answer: Its inhibition at 10 ppm is 34%.

Question: For COc1cccc2c(-c3ccccc3)cc(-c3ccc(CC(N)=O)s3)nc12 [Formula Ib-v, 2-(5-(8-methoxy-4-phenylquinolin-2-yl)thiophen-2-yl)acetamide], which IC50 [2] is on record?
Answer: Its IC50 is 4.21 µM.
